# According to the supplement of paper PMC10307832:
# Tests used:
# Test in all cases: relative viability (nuclei count vs DMSO), 5 days (fraction); higher = more cells survive
# Lestaurtinib + OSI-027 = compound: C[C@]12O[C@H](C[C@]1(O)CO)n1c3ccccc3c3c4c(c5c6ccccc6n2c5c31)CNC4=O [Lestaurtinib] + COc1cccc2cc(-c3nc([C@H]4CC[C@H](C(=O)O)CC4)n4ncnc(N)c34)[nH]c12 [OSI-027] (partner 0.5 µM)
# Method in brief: (§1)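 One day after seeding in 1536-well plates, lung cancer cell lines were dosed by pin tool. Dosing was either single-drug or a fixed anchor-drug dose plus five library-drug doses (not always all listed) in √10 steps. After 5 days, nuclei were stained in one fix-and-stain step and counted on 4× images, and relative viability is the nuclei count of treated wells over that of vehicle wells, given as the median of duplicate plates.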
# [1] = compound: C1/C(=C\C2=CC=CS2)/C(=O)/C(=C/C3=CC=CS3)/C1 + COc1cccc2cc(-c3nc([C@H]4CC[C@H](C(=O)O)CC4)n4ncnc(N)c34)[nH]c12 [OSI-027] (partner 0.5 µM)
# Method in brief: as §1
# TPCA-1 + AZD7762 = compound: C1=CC(=CC=C1C2=CC(=C(S2)NC(=O)N)C(=O)N)F [TPCA-1] + NC(=O)Nc1cc(-c2cccc(F)c2)sc1C(=O)N[C@H]1CCCNC1 [AZD7762] (partner 0.2 µM)
# Method in brief: as §1
# [2] = compound: C[C@]12O[C@H](C[C@]1(O)CO)n1c3ccccc3c3c4c(c5c6ccccc6n2c5c31)CNC4=O [Lestaurtinib] + N=C(N)NC(=N)NCCc1ccccc1 [Phenformin] (partner 250 µM)
# Method in brief: as §1
Cell Line,relative viability (Lestaurtinib + OSI-027; first compound 0.005 µM),relative viability (Lestaurtinib + OSI-027; first compound 0.01581 µM),relative viability (Lestaurtinib + OSI-027; first compound 0.05 µM),relative viability (Lestaurtinib + OSI-027; first compound 0.1581 µM),relative viability (Lestaurtinib + OSI-027; first compound 0.5 µM),relative viability ([1]; first compound 0.2 µM),relative viability ([1]; first compound 0.6325 µM),relative viability ([1]; first compound 6.325 µM),relative viability ([1]; first compound 20 µM),relative viability (TPCA-1 + AZD7762; first compound 0.04 µM),relative viability (TPCA-1 + AZD7762; first compound 0.1265 µM),relative viability (TPCA-1 + AZD7762; first compound 0.4 µM),relative viability (TPCA-1 + AZD7762; first compound 1.265 µM),relative viability (TPCA-1 + AZD7762; first compound 4 µM),relative viability ([2]; first compound 0.005 µM),relative viability ([2]; first compound 0.01581 µM),relative viability ([2]; first compound 0.05 µM),relative viability ([2]; first compound 0.1581 µM),relative viability ([2]; first compound 0.5 µM),relative viability ([1]; first compound 2 µM)
NCI-H1975,0.795,0.75,0.534,0.412,0.347,0.944,0.689,0.661,0.739,0.717,0.682,0.763,0.923,0.522,0.464,0.44,0.363,0.353,0.275,
NCI-H1648,0.233,0.271,0.285,0.246,0.261,0.282,0.269,,0.258,0.807,0.682,0.684,0.806,0.668,,,,,,0.307
NCI-H1623,0.4,0.412,0.428,0.399,0.398,0.455,0.465,0.434,0.405,,,,,,0.609,0.593,0.557,0.525,0.51,0.445
NCI-H3122,1.36,1.4,0.99,0.875,0.339,1.17,0.956,0.889,1.01,1.1,0.97,1.04,0.941,0.957,0.365,0.431,0.372,0.363,0.175,1
NCI-H2347,0.402,0.423,0.409,0.33,0.367,0.482,0.391,,0.389,0.729,0.717,0.923,0.739,0.633,0.304,0.448,0.316,0.309,0.39,0.429
HCC-44,0.548,0.654,0.462,0.659,0.705,0.482,0.528,0.475,0.479,1,1.01,0.982,1.08,1.02,0.194,0.193,0.173,0.283,0.185,0.649
HCC-78,0.34,0.417,0.323,0.381,0.29,0.372,0.404,0.37,0.326,0.745,0.742,0.801,0.545,0.497,0.658,0.816,0.556,0.425,0.406,0.431
COR-L23,0.612,0.933,0.281,0.395,0.343,0.804,0.816,0.709,0.749,,,,,,0.527,0.551,0.256,0.327,0.14,0.732
NCI-H1993,0.59,0.555,0.524,0.534,0.423,0.627,0.54,0.447,0.523,0.972,0.748,0.745,0.747,0.598,0.559,0.547,0.527,0.457,0.486,0.585
NCI-H2023,0.375,0.407,0.341,0.296,0.104,0.394,0.469,0.304,0.364,,,,,,0.451,0.451,0.343,0.344,0.144,0.425
NCI-H1563,0.724,0.755,0.757,0.777,0.734,0.774,0.787,0.729,0.773,,,,,,0.625,0.711,0.677,0.577,0.58,0.717
SK-MES-1,0.536,0.486,0.407,0.342,0.151,0.598,0.689,0.55,0.616,,,,,,0.693,0.59,0.484,0.441,0.186,0.627
NCI-H1650,0.642,0.829,0.594,0.652,0.357,0.727,0.713,0.544,0.733,,,,,,0.419,0.511,0.424,0.373,0.151,0.743
NCI-H1703,,,,,,,,,,0.132,0.118,0.136,,0.122,,,,,,
NCI-H661,0.623,0.736,0.405,0.589,0.372,0.766,0.753,0.664,0.735,,,,,,0.271,0.277,0.303,0.251,0.248,0.736
NCI-H2228,0.528,0.627,0.349,0.294,0.104,0.62,0.602,0.521,0.537,,,,,,0.235,0.215,0.237,0.218,0.127,0.81
NCI-H520,0.299,0.286,0.272,0.206,0.196,0.265,0.269,0.306,0.244,,,,,,0.648,0.744,0.44,0.313,0.2,0.295
